Data published in the NIST ThermoML archive (doi:10.1016/j.fluid.2017.12.026).
Several values for one entry are separate records, joined by “and”; a condition that tells them apart may be missing. Equal values may be shown once.

Settings: Coaxial cylinder method

CCCCC [pentane]
Settings	thermal conductivity
309.04 K, 260 kPa, Liquid	0.109 W/m/K
309.04 K, 261 kPa, Liquid	0.1092 W/m/K
309.04 K, 1000 kPa, Liquid	0.1095 W/m/K
309.04 K, 2000 kPa, Liquid	0.1101 W/m/K
309.04 K, 3012 kPa, Liquid	0.1108 W/m/K
309.04 K, 4151 kPa, Liquid	0.1118 W/m/K
309.04 K, 4297 kPa, Liquid	0.1117 W/m/K
309.04 K, 5604 kPa, Liquid	0.1123 W/m/K
309.04 K, 6001 kPa, Liquid	0.1125 W/m/K
309.04 K, 7000 kPa, Liquid	0.113 W/m/K
309.04 K, 8108 kPa, Liquid	0.1137 W/m/K
309.04 K, 9011 kPa, Liquid	0.1142 W/m/K
309.04 K, 10008 kPa, Liquid	0.1154 W/m/K
309.04 K, 11054 kPa, Liquid	0.1161 W/m/K
309.04 K, 12000 kPa, Liquid	0.1167 W/m/K
309.04 K, 12504 kPa, Liquid	0.1168 W/m/K
309.04 K, 13000 kPa, Liquid	0.1171 W/m/K
309.04 K, 14742 kPa, Liquid	0.1181 W/m/K
309.04 K, 19800 kPa, Liquid	0.1207 W/m/K
309.04 K, 19908 kPa, Liquid	0.1205 W/m/K
309.04 K, 20004 kPa, Liquid	0.1206 W/m/K
309.04 K, 24000 kPa, Liquid	0.1231 W/m/K
309.04 K, 25000 kPa, Liquid	0.1233 W/m/K
309.04 K, 28000 kPa, Liquid	0.1241 W/m/K
309.04 K, 29100 kPa, Liquid	0.1253 W/m/K
309.04 K, 29300 kPa, Liquid	0.1256 W/m/K
309.04 K, 34000 kPa, Liquid	0.1281 W/m/K
309.04 K, 35000 kPa, Liquid	0.1286 W/m/K
309.04 K, 38000 kPa, Liquid	0.1298 W/m/K
309.04 K, 39100 kPa, Liquid	0.1299 W/m/K
309.04 K, 39176 kPa, Liquid	0.13 W/m/K
309.04 K, 39350 kPa, Liquid	0.1304 W/m/K
309.04 K, 49940 kPa, Liquid	0.1352 W/m/K
309.04 K, 50230 kPa, Liquid	0.1353 W/m/K
309.04 K, 50800 kPa, Liquid	0.1352 W/m/K
315.55 K, 100 kPa, Gas	0.01635 W/m/K
331.2 K, 2097 kPa, Liquid	0.1035 W/m/K
331.2 K, 3000 kPa, Liquid	0.1041 W/m/K
331.2 K, 3500 kPa, Liquid	0.1045 W/m/K
331.2 K, 4000 kPa, Liquid	0.1046 W/m/K
331.2 K, 5000 kPa, Liquid	0.1053 W/m/K
331.2 K, 6000 kPa, Liquid	0.1061 W/m/K
331.2 K, 7000 kPa, Liquid	0.1068 W/m/K
331.2 K, 8000 kPa, Liquid	0.1069 W/m/K
331.2 K, 9000 kPa, Liquid	0.1072 W/m/K
331.2 K, 9500 kPa, Liquid	0.1077 W/m/K
331.2 K, 10000 kPa, Liquid	0.1078 W/m/K
331.2 K, 11000 kPa, Liquid	0.1085 W/m/K
331.2 K, 12000 kPa, Liquid	0.109 W/m/K
331.2 K, 13000 kPa, Liquid	0.1094 W/m/K
331.2 K, 15000 kPa, Liquid	0.1109 W/m/K
331.2 K, 16000 kPa, Liquid	0.1115 W/m/K
331.2 K, 17000 kPa, Liquid	0.1122 W/m/K
331.2 K, 18000 kPa, Liquid	0.1126 W/m/K
331.2 K, 19000 kPa, Liquid	0.1131 W/m/K
331.2 K, 20000 kPa, Liquid	0.1139 W/m/K
331.2 K, 21000 kPa, Liquid	0.1141 W/m/K
331.2 K, 22000 kPa, Liquid	0.1148 W/m/K
331.2 K, 24000 kPa, Liquid	0.1158 W/m/K
331.2 K, 25482 kPa, Liquid	0.1167 W/m/K
331.2 K, 26404 kPa, Liquid	0.1172 W/m/K
331.2 K, 27000 kPa, Liquid	0.1176 W/m/K
331.2 K, 30000 kPa, Liquid	0.1188 W/m/K
331.2 K, 31040 kPa, Liquid	0.1193 W/m/K
331.2 K, 31081 kPa, Liquid	0.1193 W/m/K
331.2 K, 32500 kPa, Liquid	0.1202 W/m/K
331.2 K, 33500 kPa, Liquid	0.1209 W/m/K
331.2 K, 34477 kPa, Liquid	0.1211 W/m/K
331.2 K, 35500 kPa, Liquid	0.1216 W/m/K
331.2 K, 36500 kPa, Liquid	0.1224 W/m/K
331.2 K, 37885 kPa, Liquid	0.1229 W/m/K
331.2 K, 38500 kPa, Liquid	0.1231 W/m/K
331.2 K, 39000 kPa, Liquid	0.1237 W/m/K
331.2 K, 39500 kPa, Liquid	0.1239 W/m/K
331.2 K, 40000 kPa, Liquid	0.1241 W/m/K
331.2 K, 41000 kPa, Liquid	0.1242 W/m/K
331.2 K, 42000 kPa, Liquid	0.1246 W/m/K
331.2 K, 43500 kPa, Liquid	0.1255 W/m/K
331.2 K, 44500 kPa, Liquid	0.1261 W/m/K
331.2 K, 45500 kPa, Liquid	0.1266 W/m/K
331.2 K, 47000 kPa, Liquid	0.1272 W/m/K
331.2 K, 48000 kPa, Liquid	0.1273 W/m/K
331.2 K, 49500 kPa, Liquid	0.1283 W/m/K
331.2 K, 50000 kPa, Liquid	0.1278 W/m/K
386 K, 5061 kPa, Liquid	0.09007 W/m/K
386 K, 10175 kPa, Liquid	0.09446 W/m/K
386 K, 18875 kPa, Liquid	0.0996 W/m/K
386 K, 20275 kPa, Liquid	0.1023 W/m/K
386 K, 30275 kPa, Liquid	0.1082 W/m/K
386 K, 34475 kPa, Liquid	0.1107 W/m/K
386 K, 40275 kPa, Liquid	0.1122 W/m/K
386 K, 49975 kPa, Liquid	0.1184 W/m/K
386 K, 53475 kPa, Liquid	0.1203 W/m/K
387.83 K, 75 kPa, Gas	0.02437 W/m/K
387.83 K, 100 kPa, Gas	0.02484 W/m/K
399.6 K, 2900 kPa, Liquid	0.08457 W/m/K
399.6 K, 3000 kPa, Liquid	0.08493 W/m/K
399.6 K, 4000 kPa, Liquid	0.08522 W/m/K
399.6 K, 4500 kPa, Liquid	0.08602 W/m/K
399.6 K, 5000 kPa, Liquid	0.0869 W/m/K
399.6 K, 6000 kPa, Liquid	0.088 W/m/K
399.6 K, 7000 kPa, Liquid	0.08901 W/m/K
399.6 K, 7500 kPa, Liquid	0.08952 W/m/K
399.6 K, 8000 kPa, Liquid	0.0899 W/m/K
399.6 K, 9500 kPa, Liquid	0.09127 W/m/K
399.6 K, 10000 kPa, Liquid	0.09171 W/m/K
399.6 K, 11000 kPa, Liquid	0.09237 W/m/K
399.6 K, 12000 kPa, Liquid	0.09323 W/m/K
399.6 K, 13000 kPa, Liquid	0.09372 W/m/K
399.6 K, 14000 kPa, Liquid	0.09464 W/m/K
399.6 K, 15000 kPa, Liquid	0.09518 W/m/K
399.6 K, 16000 kPa, Liquid	0.09601 W/m/K
399.6 K, 17000 kPa, Liquid	0.09671 W/m/K
399.6 K, 18000 kPa, Liquid	0.09742 W/m/K
399.6 K, 19000 kPa, Liquid	0.09836 W/m/K
399.6 K, 20000 kPa, Liquid	0.0989 W/m/K
399.6 K, 21000 kPa, Liquid	0.09955 W/m/K
399.6 K, 22000 kPa, Liquid	0.1001 W/m/K
399.6 K, 23500 kPa, Liquid	0.1011 W/m/K
399.6 K, 25000 kPa, Liquid	0.1022 W/m/K
399.6 K, 26000 kPa, Liquid	0.1026 W/m/K
399.6 K, 27000 kPa, Liquid	0.1031 W/m/K
399.6 K, 28000 kPa, Liquid	0.1037 W/m/K
399.6 K, 29000 kPa, Liquid	0.1047 W/m/K
399.6 K, 30000 kPa, Liquid	0.1051 W/m/K
399.6 K, 31000 kPa, Liquid	0.1056 W/m/K
399.6 K, 33000 kPa, Liquid	0.1066 W/m/K
399.6 K, 34000 kPa, Liquid	0.1071 W/m/K
399.6 K, 35000 kPa, Liquid	0.1076 W/m/K
399.6 K, 35301 kPa, Liquid	0.1079 W/m/K
421.85 K, 100 kPa, Gas	0.02874 W/m/K and 0.02895 W/m/K
421.85 K, 1640 kPa, Liquid	0.07566 W/m/K
421.85 K, 1650 kPa, Liquid	0.07566 W/m/K
421.85 K, 1660 kPa, Liquid	0.07566 W/m/K
421.85 K, 1680 kPa, Liquid	0.07566 W/m/K
421.85 K, 1700 kPa, Liquid	0.07566 W/m/K
421.85 K, 1710 kPa, Liquid	0.07566 W/m/K
421.85 K, 1720 kPa, Liquid	0.07566 W/m/K
421.85 K, 1730 kPa, Liquid	0.07596 W/m/K
421.85 K, 1750 kPa, Liquid	0.07566 W/m/K
421.85 K, 1764 kPa, Liquid	0.07568 W/m/K
421.85 K, 1772 kPa, Liquid	0.07584 W/m/K
421.85 K, 1910 kPa, Liquid	0.07624 W/m/K
421.85 K, 1946 kPa, Liquid	0.0762 W/m/K
421.85 K, 1954 kPa, Liquid	0.07621 W/m/K
422.2 K, 2518 kPa, Liquid	0.07714 W/m/K
422.2 K, 5041 kPa, Liquid	0.08091 W/m/K
422.2 K, 10475 kPa, Liquid	0.08676 W/m/K
422.2 K, 18675 kPa, Liquid	0.09347 W/m/K
422.2 K, 18775 kPa, Liquid	0.09348 W/m/K
422.2 K, 20475 kPa, Liquid	0.09413 W/m/K
422.2 K, 30575 kPa, Liquid	0.1002 W/m/K
422.2 K, 30675 kPa, Liquid	0.1007 W/m/K
422.2 K, 40275 kPa, Liquid	0.1061 W/m/K
422.2 K, 48075 kPa, Liquid	0.1104 W/m/K
422.2 K, 52975 kPa, Liquid	0.1123 W/m/K
425.73 K, 100 kPa, Gas	0.02926 W/m/K
425.74 K, 1560 kPa, Gas	0.0319 W/m/K
425.8 K, 100 kPa, Gas	0.0294 W/m/K
425.82 K, 100 kPa, Gas	0.02926 W/m/K
426.24 K, 100 kPa, Gas	0.02935 W/m/K
426.25 K, 100 kPa, Gas	0.02935 W/m/K
426.25 K, 1210 kPa, Gas	0.0316 W/m/K
426.25 K, 1280 kPa, Gas	0.03151 W/m/K
